According to the supplement of paper PMC10307832:

Experiments:
Experiment in all cases: relative viability (nuclei count vs DMSO), 5 days (fraction); higher = more cells survive
201T = system: 201T
How it was run: (§1)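 Five library-drug doses in √10 steps were combined with a fixed anchor-drug dose, or a single drug was given alone, by pin tool to lung cancer cell lines in 1536-well plates the day after seeding. Nuclei were stained and counted after 5 days. Relative viability is the nuclei count in treated wells over that in vehicle wells, taken as the median of duplicate plates.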

BEN = system: BEN
How it was run: as §1

COR-L 105 = system: COR-L 105
How it was run: as §1

EMC-BAC-2 = system: EMC-BAC-2
How it was run: as §1

H3255 = system: H3255
How it was run: as §1

HARA = system: HARA
How it was run: as §1

HCC-78 = system: HCC-78
How it was run: as §1

HOP-62 = system: HOP-62
How it was run: as §1

LC-2-ad = system: LC-2-ad
How it was run: as §1

LOU-NH91 = system: LOU-NH91
How it was run: as §1

LU99A = system: LU99A
How it was run: as §1

LXF-289 = system: LXF-289
How it was run: as §1

NCI-H1395 = system: NCI-H1395
How it was run: as §1

NCI-H1563 = system: NCI-H1563
How it was run: as §1

NCI-H1993 = system: NCI-H1993
How it was run: as §1

NCI-H2087 = system: NCI-H2087
How it was run: as §1

NCI-H2126 = system: NCI-H2126
How it was run: as §1

NCI-H2170 = system: NCI-H2170
How it was run: as §1

NCI-H650 = system: NCI-H650
How it was run: as §1

RERF-LC-KJ = system: RERF-LC-KJ
How it was run: as §1

SK-MES-1 = system: SK-MES-1
How it was run: as §1

SW 900 = system: SW 900
How it was run: as §1

UMC-11 = system: UMC-11
How it was run: as §1

CCNC(=O)c1noc(-c2cc(C(C)C)c(O)cc2O)c1-c1ccc(CN2CCOCC2)cc1 [Luminespib] + Cc1nc(Nc2ncc(C(=O)Nc3c(C)cccc3Cl)s2)cc(N2CCN(CCO)CC2)n1 [Dasatinib] (partner 0.075 µM)
relative viability (201T; first compound 0.002 µM): 0.524
relative viability (201T; first compound 0.006325 µM): 0.614
relative viability (201T; first compound 0.02 µM): 0.506
relative viability (201T; first compound 0.06325 µM): 0.569
relative viability (201T; first compound 0.2 µM): 0.237
relative viability (BEN; first compound 0.002 µM): 0.323
relative viability (BEN; first compound 0.006325 µM): 0.303
relative viability (BEN; first compound 0.02 µM): 0.263
relative viability (BEN; first compound 0.06325 µM): 0.334
relative viability (BEN; first compound 0.2 µM): 0.192
relative viability (COR-L 105; first compound 0.002 µM): 0.344
relative viability (COR-L 105; first compound 0.006325 µM): 0.322
relative viability (COR-L 105; first compound 0.02 µM): 0.248
relative viability (COR-L 105; first compound 0.06325 µM): 0.157
relative viability (COR-L 105; first compound 0.2 µM): 0.145
relative viability (EMC-BAC-2; first compound 0.002 µM): 0.355
relative viability (EMC-BAC-2; first compound 0.006325 µM): 0.351
relative viability (EMC-BAC-2; first compound 0.02 µM): 0.312
relative viability (EMC-BAC-2; first compound 0.06325 µM): 0.395
relative viability (EMC-BAC-2; first compound 0.2 µM): 0.172
relative viability (H3255; first compound 0.002 µM): 0.375
relative viability (H3255; first compound 0.006325 µM): 0.311
relative viability (H3255; first compound 0.06325 µM): 0.406
relative viability (H3255; first compound 0.2 µM): 0.197
relative viability (HARA; first compound 0.002 µM): 0.224
relative viability (HARA; first compound 0.006325 µM): 0.279
relative viability (HARA; first compound 0.02 µM): 0.205
relative viability (HARA; first compound 0.06325 µM): 0.0633
relative viability (HARA; first compound 0.2 µM): 0.0774
relative viability (HCC-78; first compound 0.002 µM): 0.373
relative viability (HCC-78; first compound 0.006325 µM): 0.251
relative viability (HCC-78; first compound 0.06325 µM): 0.455
relative viability (HCC-78; first compound 0.2 µM): 0.204
relative viability (HOP-62; first compound 0.002 µM): 0.734
relative viability (HOP-62; first compound 0.006325 µM): 0.611
relative viability (HOP-62; first compound 0.02 µM): 0.603
relative viability (HOP-62; first compound 0.06325 µM): 0.408
relative viability (HOP-62; first compound 0.2 µM): 0.102
relative viability (LC-2-ad; first compound 0.002 µM): 0.583
relative viability (LC-2-ad; first compound 0.006325 µM): 0.567
relative viability (LC-2-ad; first compound 0.02 µM): 0.447
relative viability (LC-2-ad; first compound 0.06325 µM): 0.142
relative viability (LC-2-ad; first compound 0.2 µM): 0.16
relative viability (LOU-NH91; first compound 0.002 µM): 0.517
relative viability (LOU-NH91; first compound 0.006325 µM): 0.543
relative viability (LOU-NH91; first compound 0.02 µM): 0.388
relative viability (LOU-NH91; first compound 0.06325 µM): 0.258
relative viability (LOU-NH91; first compound 0.2 µM): 0.29
relative viability (LU99A; first compound 0.002 µM): 0.658
relative viability (LU99A; first compound 0.006325 µM): 0.406
relative viability (LU99A; first compound 0.02 µM): 0.377
relative viability (LU99A; first compound 0.06325 µM): 0.0593
relative viability (LU99A; first compound 0.2 µM): 0.0775
relative viability (LXF-289; first compound 0.002 µM): 0.271
relative viability (LXF-289; first compound 0.006325 µM): 0.238
relative viability (LXF-289; first compound 0.02 µM): 0.187
relative viability (LXF-289; first compound 0.06325 µM): 0.0634
relative viability (LXF-289; first compound 0.2 µM): 0.0395
relative viability (NCI-H1395; first compound 0.002 µM): 0.418
relative viability (NCI-H1395; first compound 0.006325 µM): 0.386
relative viability (NCI-H1395; first compound 0.02 µM): 0.366
relative viability (NCI-H1395; first compound 0.06325 µM): 0.33
relative viability (NCI-H1395; first compound 0.2 µM): 0.309
relative viability (NCI-H1563; first compound 0.002 µM): 0.453
relative viability (NCI-H1563; first compound 0.006325 µM): 0.476
relative viability (NCI-H1563; first compound 0.02 µM): 0.394
relative viability (NCI-H1563; first compound 0.06325 µM): 0.353
relative viability (NCI-H1563; first compound 0.2 µM): 0.341
relative viability (NCI-H1993; first compound 0.002 µM): 0.633
relative viability (NCI-H1993; first compound 0.006325 µM): 0.534
relative viability (NCI-H1993; first compound 0.02 µM): 0.431
relative viability (NCI-H1993; first compound 0.06325 µM): 0.331
relative viability (NCI-H1993; first compound 0.2 µM): 0.353
relative viability (NCI-H2087; first compound 0.002 µM): 0.757
relative viability (NCI-H2087; first compound 0.006325 µM): 0.441
relative viability (NCI-H2087; first compound 0.02 µM): 0.317
relative viability (NCI-H2087; first compound 0.06325 µM): 0.102
relative viability (NCI-H2087; first compound 0.2 µM): 0.086
relative viability (NCI-H2126; first compound 0.002 µM): 0.631
relative viability (NCI-H2126; first compound 0.006325 µM): 0.606
relative viability (NCI-H2126; first compound 0.02 µM): 0.399
relative viability (NCI-H2126; first compound 0.06325 µM): 0.206
relative viability (NCI-H2126; first compound 0.2 µM): 0.221
relative viability (NCI-H2170; first compound 0.002 µM): 0.503
relative viability (NCI-H2170; first compound 0.006325 µM): 0.578
relative viability (NCI-H2170; first compound 0.02 µM): 0.308
relative viability (NCI-H2170; first compound 0.06325 µM): 0.163
relative viability (NCI-H2170; first compound 0.2 µM): 0.106
relative viability (NCI-H650; first compound 0.002 µM): 0.468
relative viability (NCI-H650; first compound 0.006325 µM): 0.417
relative viability (NCI-H650; first compound 0.02 µM): 0.359
relative viability (NCI-H650; first compound 0.06325 µM): 0.112
relative viability (NCI-H650; first compound 0.2 µM): 0.115
relative viability (RERF-LC-KJ; first compound 0.002 µM): 0.833
relative viability (RERF-LC-KJ; first compound 0.006325 µM): 0.897
relative viability (RERF-LC-KJ; first compound 0.02 µM): 0.603
relative viability (RERF-LC-KJ; first compound 0.06325 µM): 0.232
relative viability (RERF-LC-KJ; first compound 0.2 µM): 0.234
relative viability (SK-MES-1; first compound 0.002 µM): 0.333
relative viability (SK-MES-1; first compound 0.006325 µM): 0.376
relative viability (SK-MES-1; first compound 0.02 µM): 0.217
relative viability (SK-MES-1; first compound 0.06325 µM): 0.0911
relative viability (SK-MES-1; first compound 0.2 µM): 0.0956
relative viability (SW 900; first compound 0.002 µM): 0.741
relative viability (SW 900; first compound 0.006325 µM): 0.722
relative viability (SW 900; first compound 0.02 µM): 0.227
relative viability (SW 900; first compound 0.06325 µM): 0.0874
relative viability (SW 900; first compound 0.2 µM): 0.109
relative viability (UMC-11; first compound 0.002 µM): 0.474
relative viability (UMC-11; first compound 0.006325 µM): 0.488
relative viability (UMC-11; first compound 0.02 µM): 0.309
relative viability (UMC-11; first compound 0.06325 µM): 0.214
relative viability (UMC-11; first compound 0.2 µM): 0.153
